Reference: patent US20050037436A1, “Test systems and the use thereof for identifying and characterizing compounds” (priority 2000, published 2005)
Entries after “also recorded” stand apart in the source; their conditions may differ. Where two headings read alike, the source gives them in different places.

Test system: HC110-R
Assay type: cell-based, Haemonchus contortus
Details: for Ca2+ response to substance alone: 400 ng/ml where stated, up to 50 min or 90 min preincubation
Description: The intracellular free Ca^2+ concentration [Ca^2+]i was measured in COS-7 and HEK293 cells transiently transfected with the HC110-R-EGFP or β2-AR-EGFP construct using the calcium imaging method (see also FIG. 11). In each case 2×10^5 COS-7 and HEK293 cells were applied to a 42 mm cover glass coated with 1% gelatine in 55 mm tissue culture dishes with 5 ml of DMEM medium (with 10% FCS and pen/strep). The transfection took place with the aid of the non-liposomal transfection reagent FuGENE 6 (Roche Molecular Biochemicals, Mannheim). […] Constructs of the HC110-R full-length clone with a GFP tag fused in the correct reading frame, and the complete cDNA of the β2-adrenergic receptor which had likewise been provided with a GFP tag at the 3′ end, were transfected.
After the incubation, the cells loaded with Fura-2/AM were examined under an inverted microscope (Zeiss, Axiovert, Germany) and, in parallel with this, in a digital imaging fluorescence microscope (PTI) and differentiated into transfected and untransfected cells at a wavelength of 440 and 490 nm respectively. On average, 5-7 transfected and non transfected cells were selected by fixing an ROI (region of interest). The extinction was measured at 340 nm (calcium-bound Fura-2/AM) and 380 nm (free Fura-2/AM), and the emission was measured at 510 nm. Evaluation took place using the Image Master 1.x software by forming the quotient of 340:510 nm, 380:510 nm and the ratio of 340/380:510 nm (background corrected images) as a function of the agent added.
Agents were always added 6 min after starting the measurement by removing an appropriate volume of Na^+ HBS buffer and pipetting the agent directly into the sample vessel for a further 30 to 50 min. The total volume in the sample vessel was constant at 1.5 ml throughout the experiment. […] Addition of CdCl2 and nifedipine took place immediately at the start of the experiment and before addition of α-LTX, and EGTA was added both at the start of the experiment and 4 min after the addition of α-LTX. Dissolved α-LTX was present in a concentration of 300 nM in 50 mM tris-HCl, pH 8.0; BAY 44-4400 was initially dissolved in pure DMSO (stock solutions between 0.004 and 10 μg/ml). The stock solutions were adjusted to the required concentration in the Na^+ HBS buffer. The maximum amount of the active substance BAY 44-4400 which could be dissolved at a final concentration of 0.1% DMSO was found by setting up serial dilutions in Na^+ HBS.
The data were analyzed using the Excel 98 table calculation programme. The results are derived from at least 2-4 reproduced experiments on in each case 4-8 transfected and un-transfected cells.

[1] = 4 ng/ml added 6 min before 75 nM α-LTX

## CC(C)C[C@H]1C(=O)O[C@H](Cc2ccc(N3CCOCC3)cc2)C(=O)N(C)[C@@H](CC(C)C)C(=O)O[C@H](C)C(=O)N(C)[C@@H](CC(C)C)C(=O)O[C@H](Cc2ccc(N3CCOCC3)cc2)C(=O)N(C)[C@@H](CC(C)C)C(=O)O[C@H](C)C(=O)N1C [BAY44-4400, cyclo(-D-Lac-L-MeLeu-D-p-morpholinyl-PhLac-L-MeLeu-)]
[1]
  first small α-LTX-induced increase in [Ca2+]i: disappeared
  α-LTX-induced increase in [Ca2+]i in presence of substance: 44 ± 6.0 nM
4 ng/ml or 400 ng/ml, 90 min preincubation, no α-LTX
  change in [Ca2+]i after preincubation with substance alone: no change in [Ca^2+]i
4 ng/ml, 90 min preincubation, substance removed, then 75 nM α-LTX
  α-LTX-induced increase in [Ca2+]i after preincubation: 95 ± 20.5 nM
4 ng/ml, 90 min preincubation, then 75 nM α-LTX
  plateau of [Ca2+]i after the peak: 23 ± 2.6 nM
400 ng/ml BAY44-4400 + 1 or 10 μM piperazine, untransfected and HC110-R-GFP-transfected cells
  change in [Ca2+]i, BAY44-4400 given with piperazine: no change in [Ca^2+]i was detectable
400 ng/ml added 6 min before 75 nM α-LTX
  α-LTX-induced increase in [Ca2+]i in presence of substance: 49 ± 4.2 nM
400 ng/ml added 6 min before 75 nM α-LTX, 8 min after peak
  plateau of [Ca2+]i above initial values after the peak: 11 ± 1.4 nM
400 ng/ml versus 4 ng/ml, 90 min preincubation
  delay of the α-LTX-induced increase: 12 min
No α-LTX
  Ca2+ response to substance alone: does not influence the Ca^2+ concentration; also recorded: neither the very effective nematicide BAY44-4400 nor the virtually ineffective antipode PF1022-001 induces a Ca^2+ response
No α-LTX, listed as BAY 44-4400
  Ca2+ response to substance alone: in no comparable way with a change in the intracellular Ca^2+ concentration
100, 300 or 400 ng/ml and 1 or 10 μg/ml, 50 min, untransfected and HC110-R-GFP-transfected cells
  Ca2+-mediated response to substance alone: At no concentration was a Ca^2+-mediated response detectable
HC110-R-transfected HEK-293 cells
  mode of action on α-LTX signalling: acts as antagonist of α-LTX
Incubation 6 minutes before 75 nM α-LTX
  first small α-LTX-induced increase in [Ca2+]i: disappears
Incubation 6 minutes before 75 nM α-LTX, 15 minutes after α-LTX
  reduction of second α-LTX-induced increase: 85%
Preincubated 60 minutes before 30 minutes FURA loading, 75 nM α-LTX
  first α-LTX-induced increase in Ca2+: complete disappearance
Preincubated 60 minutes before 30 minutes FURA loading, 30 minutes after 75 nM α-LTX
  second α-LTX-induced increase in [Ca2+]i: 70 nM
